Measurements taken from patent US8962853B2, “Chemical probe compounds that become fluorescent upon reduction, and methods for their use” (Life Technologies Corporation, priority 2005, dated 2015).

Columns and labels:
S. aureus [1] = test: Electron transport system (ETS) inhibition assay; type: cell-based, Staphylococcus aureus; details: for fluorescence signal of stain, S. aureus: no ETS inhibitor (Untreated)
Procedure: (§1) S. aureus and E. coli were treated with known inhibitors of the electron transport system (ETS) to determine if reductase moieties in the ETS would reduce exemplary stain compounds. […] The bacteria were diluted in PBS buffer and treated with the various ETS inhibitors, stained with 500 nM stain compound (18) for 10 minutes, and then analyzed by flow cytometry using a Becton Dickinson FACSCalibur™ instrument (Becton, Dickinson and Company; Franklin Lakes, N.J.) containing a 488 nm argon ion laser.
(§2) Stain compound (19) was assayed according to the procedure outlined in Example 23.
(§3) Stain compound (22) was assayed according to the procedure outlined in Example 23.
(§4) Stain compound (24) was assayed according to the procedure outlined in Example 23.

E. coli [2] = test: Electron transport system (ETS) inhibition assay; type: cell-based, Escherichia coli; details: for fluorescence signal of stain, E. coli: no ETS inhibitor (Untreated)
Procedure: as §1, §2, §3, §4

S. aureus [3] = test: Titration series on cultured bacteria; type: cell-based, Staphylococcus aureus; details: titration 10 nM to 1 uM
Procedure: (§5) The x-axis represents the concentration of compound (18) in nM, while the y-axis represents FL1 GeoMean fluorescence.
(§6) A titration series was performed on cultured bacteria. Chemical compound (18) was used at concentrations ranging from 10 nM to 1 uM for S. aureus and B. subtilis (FIG. 2), and 500 nM to 4 uM for E. coli and K. pneumoniae (FIG. 3).

B. subtilis [4] = test: Titration series on cultured bacteria; type: cell-based, Bacillus subtilis; details: titration 10 nM to 1 uM
Procedure: as §5, §6

E. coli [5] = test: Titration series on cultured bacteria; type: cell-based, Escherichia coli; details: titration 500 nM to 4 uM; Gram-negative organisms tested
Procedure: as §5, §6

K. pneumoniae [6] = test: Titration series on cultured bacteria; type: cell-based, Klebsiella pneumoniae; details: titration 500 nM to 4 uM; Gram-negative organisms tested
Procedure: as §5, §6

S. aureus [7] = test: Staining of bacteria, flow cytometry; type: cell-based, Staphylococcus aureus; details: 500 nM, 10 minutes
Procedure: (§7) Gram-positive and Gram-negative bacteria were labeled using compound (18). S. aureus and B. subtilis were used as examples of Gram-positive bacteria, and E. coli and K. pneumoniae were used as examples of Gram-negative bacteria. Cells were diluted in buffer to about 10^6 cells/mL. The bacteria were contacted with compound 18 (500 nM) for 10 minutes in Hank's Balanced Salt Solution (HBSS) or various other buffers such as PBS. The samples were analyzed by flow cytometry using a Becton Dickinson FACScan™ instrument (Becton, Dickinson and Company; Franklin Lakes, N.J.) containing a 488 nm argon ion laser. Cells were analyzed directly without washing, or optionally, were fixed with 1-4% formaldehyde prior to flow cytometric analysis.

B. subtilis [8] = test: Staining of bacteria, flow cytometry; type: cell-based, Bacillus subtilis; details: 500 nM, 10 minutes
Procedure: as §7

E. coli [9] = test: Staining of bacteria, flow cytometry; type: cell-based, Escherichia coli; details: 500 nM, 10 minutes
Procedure: as §7

K. pneumoniae [10] = test: Staining of bacteria, flow cytometry; type: cell-based, Klebsiella pneumoniae; details: 500 nM, 10 minutes
Procedure: as §7

S. aureus [11] = test: Time course treatments (growth and stain fluorescence); type: cell-based, Staphylococcus aureus; details: compound present in broth culture medium
Procedure: Control samples that were untreated were also prepared.
Samples were taken once every hour for six hours and stained with 500 nM compound (18) for 10 minutes, then analyzed by flow cytometry using a Becton Dickinson FACSCalibur™ instrument (Becton, Dickinson and Company; Franklin Lakes, N.J.) containing a 488 nm argon ion laser. Not only did the treated cells not proliferate, but the signal from the stain in treated samples decreased once the cells entered ‘log-growth’ phase as compared to the untreated control.

S. aureus [12] = test: Stability of fluorescence; type: cell-based, Staphylococcus aureus; details: monitored for one hour
Procedure: (§8) Compound (18) was contacted with cultures of S. aureus, B. subtilis, E. coli, and K. pneumoniae. The fluorescence of the samples were monitored for one hour. The signal developed very quickly for S. aureus and B. subtilis, and stabilized within 10 minutes. The signal was stable for at least one hour (FIG. 6).

B. subtilis [13] = test: Stability of fluorescence; type: cell-based, Bacillus subtilis; details: monitored for one hour
Procedure: as §8

S. aureus [14] = test: Fixation assays (compatibility with fixed samples); type: cell-based, Staphylococcus aureus; details: 100 nM, 10 minutes, HBSS
Procedure: A culture of S. aureus was grown to log-phase, and washed and diluted in HBSS to 10^6 cells per mL. Samples of 1 mL each were aliquotted to six flow cytometry tubes. CCCP was added to three of the samples at a final concentration of 10 μM. The samples were incubated for 1-5 minutes. Compound (18) was added at a final concentration of 100 nM, and the samples were allowed to sit for 10 minutes. The +/− CCCP tubes were divided into two sets: one set received 1 mL of 100% ethanol, and the other set received 100 µL of 10% formaldehyde (methanol-free). The samples were analyzed using a Becton Dickinson FACSCalibur as described in Example 23.

[15] = stained with compound (18) 500 nM, rotenone 1 mM, antimycin A 20 uM, azide 10 mM, CCCP 10 uM
[16] = buffer Sodium chloride + 10 mM glucose
[17] = stain compound (18) 500 nM, 10 minutes, PBS

## CC1=C(NCCCN(C)C2=C/C(=C\c3sc4ccccc4[n+]3C)c3ccccc3N2c2ccccc2)C(=O)c2ccccc2C1=O [Compound 22]
S. aureus [1]; stain compound (22)
  fluorescence signal of stain, S. aureus: 594.12
E. coli [2]; stain compound (22)
  fluorescence signal of stain, E. coli: 90.91

## CC1=C(C)C(=O)C(N(C)CCCN(C)C2=C/C(=C\c3sc4ccccc4[n+]3C)c3ccccc3N2c2ccccc2)=C(C)C1=O [Compound 24]
S. aureus [1]; stain compound (24)
  fluorescence signal of stain, S. aureus: 853.47
E. coli [2]; stain compound (24)
  fluorescence signal of stain, E. coli: 114.71

## antimycin A
S. aureus [1]; [15]
  fluorescence signal after inhibitor treatment, S. aureus: 59.41
S. aureus [1]; stained with compound (19)
  fluorescence signal after inhibitor treatment, S. aureus: 4.1
S. aureus [1]; stained with compound (22)
  fluorescence signal after inhibitor treatment, S. aureus: 6.16
S. aureus [1]; stained with compound (24)
  fluorescence signal after inhibitor treatment, S. aureus: 6.56
E. coli [2]; [15]
  fluorescence signal after inhibitor treatment, E. coli: 34.65
E. coli [2]; stained with compound (19)
  fluorescence signal after inhibitor treatment, E. coli: 12.4
E. coli [2]; stained with compound (22)
  fluorescence signal after inhibitor treatment, E. coli: 20.17
E. coli [2]; stained with compound (24)
  fluorescence signal after inhibitor treatment, E. coli: 26.28

## C=C(C)[C@H]1Cc2c(ccc3c2O[C@@H]2COc4cc(OC)c(OC)cc4[C@@H]2C3=O)O1 [Rotenone, rotenone]
S. aureus [1]; [15]
  fluorescence signal after inhibitor treatment, S. aureus: 32.75
S. aureus [1]; stained with compound (19)
  fluorescence signal after inhibitor treatment, S. aureus: 8.19
S. aureus [1]; stained with compound (22)
  fluorescence signal after inhibitor treatment, S. aureus: 11.74
S. aureus [1]; stained with compound (24)
  fluorescence signal after inhibitor treatment, S. aureus: 17.17
E. coli [2]; [15]
  fluorescence signal after inhibitor treatment, E. coli: 24.05
E. coli [2]; stained with compound (19)
  fluorescence signal after inhibitor treatment, E. coli: 20.56
E. coli [2]; stained with compound (22)
  fluorescence signal after inhibitor treatment, E. coli: 38.81
E. coli [2]; stained with compound (24)
  fluorescence signal after inhibitor treatment, E. coli: 44.66

## CC1=C(C)C(=O)C(N2CCN(C(=O)CCCN(C)C3=C/C(=C\c4sc5ccccc5[n+]4C)C=CN3c3ccccc3)CC2)=C(C)C1=O [Compound 19]
S. aureus [1]; stain compound (19)
  fluorescence signal of stain, S. aureus: 248.1
E. coli [2]; stain compound (19)
  fluorescence signal of stain, E. coli: 59.78

## N#CC(C#N)=NNc1cccc(Cl)c1 [CCCP, carbonyl cyanide m-chlorophenylhydrazone]
S. aureus [1]; [15]
  fluorescence signal after inhibitor treatment, S. aureus: 4.19
S. aureus [1]; stained with compound (19)
  fluorescence signal after inhibitor treatment, S. aureus: 46.73
S. aureus [1]; stained with compound (22)
  fluorescence signal after inhibitor treatment, S. aureus: 240.61
S. aureus [1]; stained with compound (24)
  fluorescence signal after inhibitor treatment, S. aureus: 402.19
E. coli [2]; [15]
  fluorescence signal after inhibitor treatment, E. coli: 150.7
E. coli [2]; stained with compound (19)
  fluorescence signal after inhibitor treatment, E. coli: 12.59
E. coli [2]; stained with compound (22)
  fluorescence signal after inhibitor treatment, E. coli: 63.26
E. coli [2]; stained with compound (24)
  fluorescence signal after inhibitor treatment, E. coli: 152.7

## CC1=C(C)C(=O)C(N2CCC(NC(=O)CCCN(C)C3=C/C(=C\c4sc5ccccc5[n+]4C)c4ccccc4N3c3ccccc3)CC2)=C(C)C1=O [Compound 18]
S. aureus [3]
  concentration found to work well for staining: 50 to 100 nM
B. subtilis [4]
  optimal concentration for staining: about 500 nM
E. coli [5]
  preferred concentration for staining: about 1 uM
K. pneumoniae [6]
  preferred concentration for staining: about 1 uM
S. aureus [7]; buffer HBSS
  FL1 GeoMean fluorescence: 2168.52
S. aureus [7]; buffer PBS + 1 mM EDTA
  FL1 GeoMean fluorescence: 1583.19
S. aureus [7]; buffer PBS + 0.01% Tween-20
  FL1 GeoMean fluorescence: 2909.97
S. aureus [7]; buffer PBS + 0.1% Pluronic
  FL1 GeoMean fluorescence: 1685.21
S. aureus [7]; buffer PBS
  FL1 GeoMean fluorescence: 1976.41
S. aureus [7]; [16]
  FL1 GeoMean fluorescence: 2183.44
S. aureus [7]; buffer Sodium chloride
  FL1 GeoMean fluorescence: 2171.61
B. subtilis [8]; buffer HBSS
  FL1 GeoMean fluorescence: 902.22
B. subtilis [8]; buffer PBS + 1 mM EDTA
  FL1 GeoMean fluorescence: 57.75
B. subtilis [8]; buffer PBS + 0.01% Tween-20
  FL1 GeoMean fluorescence: 844.66
B. subtilis [8]; buffer PBS + 0.1% Pluronic
  FL1 GeoMean fluorescence: 470.35
B. subtilis [8]; buffer PBS
  FL1 GeoMean fluorescence: 902.15
B. subtilis [8]; [16]
  FL1 GeoMean fluorescence: 943.79
B. subtilis [8]; buffer Sodium chloride
  FL1 GeoMean fluorescence: 951.93
E. coli [9]; buffer HBSS
  FL1 GeoMean fluorescence: 42.1
E. coli [9]; buffer PBS + 1 mM EDTA
  FL1 GeoMean fluorescence: 70.92
E. coli [9]; buffer PBS + 0.01% Tween-20
  FL1 GeoMean fluorescence: 44.48
E. coli [9]; buffer PBS + 0.1% Pluronic
  FL1 GeoMean fluorescence: 136.43
E. coli [9]; buffer PBS
  FL1 GeoMean fluorescence: 30.25
E. coli [9]; [16]
  FL1 GeoMean fluorescence: 11.52
E. coli [9]; buffer Sodium chloride
  FL1 GeoMean fluorescence: 12.43
K. pneumoniae [10]; buffer HBSS
  FL1 GeoMean fluorescence: 19.9
K. pneumoniae [10]; buffer PBS + 1 mM EDTA
  FL1 GeoMean fluorescence: 48.67
K. pneumoniae [10]; buffer PBS + 0.01% Tween-20
  FL1 GeoMean fluorescence: 29
K. pneumoniae [10]; buffer PBS + 0.1% Pluronic
  FL1 GeoMean fluorescence: 78.1
K. pneumoniae [10]; buffer PBS
  FL1 GeoMean fluorescence: 17.91
K. pneumoniae [10]; [16]
  FL1 GeoMean fluorescence: 9.7
K. pneumoniae [10]; buffer Sodium chloride
  FL1 GeoMean fluorescence: 9.16
S. aureus [11]
  proliferation of S. aureus: prevented proliferation
S. aureus [12]
  time for fluorescence signal to stabilize: ≤ 10 min
  time the fluorescence signal was stable: at least one
B. subtilis [13]
  time for fluorescence signal to stabilize: ≤ 10 min
  time the fluorescence signal was stable: at least one
S. aureus [14]; CCCP No, Fixation agent Ethanol
  Fluorescence: 135
S. aureus [14]; CCCP No, Fixation agent Formaldehyde
  Fluorescence: 936
S. aureus [14]; CCCP No, Fixation agent None
  Fluorescence: 1720
S. aureus [14]; CCCP Yes (10 μM), Fixation agent Ethanol
  Fluorescence: 53
S. aureus [14]; CCCP Yes (10 μM), Fixation agent Formaldehyde
  Fluorescence: 274
S. aureus [14]; CCCP Yes (10 μM), Fixation agent None
  Fluorescence: 110
S. aureus [1]; [17]
  fluorescence signal of stain, S. aureus: 351.91
E. coli [2]; [17]
  fluorescence signal of stain, E. coli: 85.33
